Assay results published in patent publication US20100298385A1, “PROTEIN KINASE INHIBITORS USEFUL FOR TREATMENT OF CANCERS” (priority 2007, published 2010).
pIC50: −log10 of the molar value.

Tests used:
Format in all cases: cell-based
[1] = tested on: cancer cells; assay: MTT test, positive controls on the different cells; conditions: at 0.4, 0.8, 1.6, 3.2, and 6.4 μm/L
Procedure: (§1) Cell incubation: the cancer cells strains are incubated in RPMI 1640 with 10% FBS, grow along the wall at 37° C. under 5% CO2 incubator.
(§2) Sample solutions: First prepare material at 100 mM in DMSO, then diluted to DMSO 4.95% using 3% DMSO FBS solution.
(§3) MTT test: cancer cells are incubated at a density of 5×10^3 cells/well in 96 well cell Culture plate for 24 hours, then added different sample solutions for 72 hours. At the end of incubation, 5 mg/mL MTT 15 μL was added to each well and stayed for 4 hours, vacuumed the solution, added DMSO 150 μL, shaked for 10 minutes, tested at […] for the OD value in the spectrophotometer, and calculated the inhibition rate of cell proliferation.
(§4) Inhibition rate of cell proliferation=(control OD−sample OD)/control OD)*100%

[2] = tested on: HepG-2; assay: MTT test, inhibition of cell proliferation; conditions: Homo sapiens, HepG2, 72 hours
Procedure: as §1, §2, §3, §4

[3] = tested on: U937; assay: MTT test, inhibition of cell proliferation; conditions: Homo sapiens, U-937, 72 hours
Procedure: as §1, §2, §3, §4

[4] = tested on: L929; assay: MTT test, inhibition of cell proliferation; conditions: Mus musculus, 72 hours
Procedure: as §1, §2, §3, §4

[5] = tested on: HL-60; assay: MTT test, inhibition of cell proliferation; conditions: Homo sapiens, 72 hours
Procedure: as §1, §2, §3, §4

[6] = tested on: A375s-2; assay: MTT test, inhibition of cell proliferation; conditions: A375-S2, 72 hours
Procedure: as §1, §2, §3, §4

[7] = tested on: Hela; assay: MTT test, inhibition of cell proliferation; conditions: Homo sapiens, 72 hours
Procedure: as §1, §2, §3, §4

[8] = tested on: A431; assay: MTT test, inhibition of cell proliferation; conditions: Homo sapiens, A-431, 72 hours
Procedure: as §1, §2, §3, §4

[9] = tested on: BGC-823; assay: MTT test, inhibition of cell proliferation; conditions: Homo sapiens, 72 hours
Procedure: as §1, §2, §3, §4

[10] = tested on: MCF-7; assay: MTT test, inhibition of cell proliferation; conditions: Homo sapiens, MCF7, 72 h
Procedure: as §1, §2, §3, §4

[11] = tested on: K562; assay: MTT test, inhibition of cell proliferation; conditions: Homo sapiens, 72 hours
Procedure: as §1, §2, §3, §4

[12] = tested on: Bel-7402; assay: MTT test, inhibition of cell proliferation; conditions: Homo sapiens, 72 hours
Procedure: as §1, §2, §3, §4

[13] = tested on: A549; assay: MTT test, inhibition of cell proliferation; conditions: Homo sapiens, 72 hours
Procedure: as §1, §2, §3, §4

[14] = tested on: KB; assay: MTT test, inhibition of cell proliferation; conditions: Homo sapiens, 72 h
Procedure: as §1, §2, §3, §4

pIC50 [3]	pIC50 [5]	pIC50 [6]	pIC50 [7]	pIC50 [8]	pIC50 [9]	pIC50 ([10]; MCF-7, first listing (r2))	pIC50 ([10]; MCF-7, second listing (r6))	pIC50 [11]	pIC50 [12]	pIC50 [13]	pIC50 ([14]; first listing (r12))	pIC50 ([14]; second listing (r16))	Structure (SMILES)	inhibition for the different cells [1]	pIC50 [2]	pIC50 [4]
–	–	–	–	–	–	–	–	–	–	–	–	–	O=P1(N(CCCl)CCCl)NCCCO1 (centres unmarked) [CYC, cyclophosphamide]	dose-dependent	–	–
–	–	–	–	–	–	–	–	–	–	–	–	–	CC(=O)O[C@H]1C(=O)[C@@]2(C)[C@H]([C@H](OC(=O)c3ccccc3)[C@]3(O)C[C@H](OC(=O)[C@H](O)[C@@H](NC(=O)c4ccccc4)c4ccccc4)C(C)=C1C3(C)C)[C@]1(OC(C)=O)CO[C@@H]1C[C@@H]2O [Paclitaxel]	dose-dependent	–	–
4.52 to 4.96	4.52 to 4.96	4.30 to 4.51	4.30 to 4.51	4.52 to 4.96	4.52 to 4.96	≥ 5.00	≥ 5.00	4.30 to 4.51	≥ 5.00	4.30 to 4.51	4.52 to 4.96	4.52 to 4.96	CNC(=O)c1cc(Oc2ccc(NC(=O)Nc3nc(C)c(C(C)(C)C)s3)cc2)ccn1 [Compound A, 4-{4-[3-(5-tert-Butyl-4-methyl-thiazol-2-yl)-ureido]-phenoxy}-pyridine-2-carboxylic acid methylamide]	–	4.52 to 4.96	4.30 to 4.51
≥ 5.00	≥ 5.00	4.52 to 4.96	4.52 to 4.96	4.52 to 4.96	4.52 to 4.96	4.30 to 4.51	4.52 to 4.96	4.30 to 4.51	≥ 5.00	4.30 to 4.51	4.30 to 4.51	4.52 to 4.96	CNC(=O)c1cc(Oc2ccc(CC(=O)Nc3ccc(Cl)c(C(F)(F)F)c3)cc2)ccn1 [Compound C, 4-(4-[(4-chloro-3-trifluoromethylphenylaminocarbonyl)-methyl]phenoxy)pyridin-2-carboxylic acid methylamide]	–	4.52 to 4.96	4.30 to 4.51
